The values below come from patent US20020183384A1, “Methods of treating nuclear factor-kappa B mediated diseases and disorders” (priority 2001, published 2002).

SMILES strings stand for the structures. Read-outs that look alike come from different tables or passages of the source.

This test deals with NF-κB mediated transcription. Kind of test: NF-κB driven β-lactamase reporter assay in ECV-304 NF-κB.βlaZ cells (AURORA CCF2 fluorescence). As to conditions: 10 μM compound, ECV-304 NF-κB.βlaZ cells stimulated with 10 ng/mL TNF-α or 100 pg/mL IL-1β, 6 hours at 37° C., inhibition of maximum blue/green ratio; for inhibition at 10 µM: Homo sapiens, read-out: Percent Inhibition at 10 μM. In kind it is cell-based, human. The procedure, abridged:
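ECV-304 cells (clone 1E8) stably carrying a β-lactamase reporter driven by 5 HIV-1 NF-κB sites, plated in M-199 with 2% FBS, compound at 10 μM final. CCF2 read at 395 nm excitation, blue 460 nm/green 530 nm emission ratio; IC50 from dose-response curve.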
In general terms: Reporter assays use an easily measured gene product as a stand-in for the process of interest.

The term inhibition denotes how much of the control response was suppressed. With `CC(C)c1cccc(C(C)C)c1OS(=O)(=O)NC(=O)C1(c2ccc(N(C)C)cc2)CCCC1` [Example 211, [1-(4-Dimethylamino-phenyl)-cyclopentanecarbonyl]-sulfamic acid 2,6-diisopropyl-phenyl ester], the inhibition at 10 µM (ECV-304, 6 h) came out at 24.6%.

With `COC(=O)C(C)(Cc1c[nH]c2ccccc12)NS(=O)(=O)NC(=O)OC1C2CC3CC(C2)CC1C3` (racemic) [Example 101, DL-Tryptophan, α-methyl-N-[[[(tricyclo[3.3.1.1^3,7]dec-2-yloxy)-carbonyl]amino]sulfonyl]-, methyl ester], the “Percent Inhibition at 10 μM” value is less than 10%.

On to `C=CCN(CC=C)S(=O)(=O)NC(=O)Nc1c(C(C)C)cccc1C(C)C` [Example 81, Urea, N-[2,6-bis(1-methylethyl)phenyl]-N′-[(di-2-propenylamino)-sulfonyl]-], for which the inhibition at 10 µM (ECV-304, 6 h) was less than 10%.

`CCCCCCCCCCN(CCCCCCCCCC)S(=O)(=O)NC(=O)Nc1c(C(C)C)cccc1C(C)C` [Example 75, Urea, N-[2,6-bis (1-methylethyl)phenyl]-N′-[(didecylamino)sulfonyl]-]: the “Percent Inhibition at 10 μM” value is less than 10%.

Regarding `CC(C)c1cc(C(C)C)c(CC(=O)NS(=O)(=O)Oc2c(C(C)C)cc(OCCCN)cc2C(C)C)c(C(C)C)c1` [Example 208, [2-(2,4,6-Triisopropyl-phenyl)-acetyl]-sulfamic acid 4-(3-amino-propoxy)-2,6-diisopropyl-phenyl ester], the inhibition at 10 µM (ECV-304, 6 h) amounted to 22.4%.

Regarding `CC(C)c1cc(C(C)C)c(OC(=O)NS(=O)(=O)Oc2c(C(C)C)cc(C(C)C)cc2C(C)C)c(C(C)C)c1` [Example 126, Carbamic acid, [[2,4,6-tris(1-methylethyl)phenoxy]sulfonyl]-,2,4,6-tris(1-methylethyl)phenyl ester], the “Percent Inhibition at 10 μM” value is given as 10.02%.

As to `CC(C)c1cccc(C(C)C)c1OS(=O)(=O)NC(=O)OC1C2CC3CC(C2)CC1C3` (stereo not drawn) [Example 131, Carbamic acid, [[2,6-bis(1-methylethyl)phenoxy]sulfonyl]-, tricyclo[3.1.1.1^3,7]-dec-2-yl ester], the “Percent Inhibition at 10 μM” value came out at 33.39%.

`CC(C)c1cc(C(C)C)c(CC(=O)NS(=O)(=O)Oc2c(C(C)C)cc(NC(=O)[C@@H](N)CO)cc2C(C)C)c(C(C)C)c1` [Example 230, [2-(2,4,6-Triisopropyl-phenyl)-acetyl]-sulfamic acid 4-((S)-2-amino-3-hydroxy-propionylamino)-2,6-diisopropyl-phenyl ester; compound with trifluoro-acetic acid]: the inhibition at 10 µM (ECV-304, 6 h) was found to be 75.2%.

Consider `CCCCCCCCCCCCCC(C)(C)S(=O)(=O)NC(=O)Nc1c(OC)cc(OC)cc1OC` [Example 249, N-[2,4,6-trimethoxyphenyl]-N′-(2-methyl-2-pentadecylsulfonyl)urea], for which the inhibition at 10 µM (ECV-304, 6 h) is less than 10%.

On to `CC(=O)Nc1cc(C(C)C)c(OS(=O)(=O)NC(=O)Cc2c(C(C)C)cc(C(C)C)cc2C(C)C)c(C(C)C)c1` [Example 196, [(2,4,6-Triisopropyl-phenyl)-acetyl]-sulfamic acid 4-acetylamino-2,6-diisopropyl-phenyl ester], for which the inhibition at 10 µM (ECV-304, 6 h) was 73.1%.

As for `CCCCCCCCC(C)S(=O)(=O)NC(=O)Nc1c(C(C)C)cccc1C(C)C` (stereo not drawn) [Example 244, N-[2,6-bis(1-methylethyl)phenyl]-N′-(2-decylsulfonyl)urea], the inhibition at 10 µM (ECV-304, 6 h) was less than 10%.

Regarding `CCCCCCCCN(C)S(=O)(=O)NC(=O)Oc1c(C(C)(C)C)cc(C)cc1C(C)(C)C` [Example 43, Carbamic acid, [(methyloctylamino)sulfonyl]-, 2,6-bis(1,1-dimethylethyl)-4-methylphenyl ester], the inhibition at 10 µM amounted to 70.2%.

`COc1cccc(OC)c1OC(=O)NS(=O)(=O)Oc1c(C(C)C)cccc1C(C)C` [Example 108, Carbamic acid, [[2,6-bis(1-methylethyl)phenoxy]sulfonyl]-, 2,6-dimethoxyphenyl ester]: the inhibition at 10 µM is less than 10%.

For `CC(C)c1cc(C(C)C)c(CC(=O)NS(=O)(=O)Oc2c(C(C)C)cc(NS(=O)(=O)c3cccs3)cc2C(C)C)c(C(C)C)c1` [Example 225, [(2,4,6-Triisopropyl-phenyl)-acetyl]-sulfamic acid 2,6-diisopropyl-4-(thiophene-2-sulfonylamino)-phenyl ester], the inhibition at 10 µM (ECV-304, 6 h) turned out to be 26.4%.

For `CC(C)c1cc(C(C)C)c(CC(=O)NS(=O)(=O)Oc2c(Cl)cccc2Cl)c(C(C)C)c1` [Example 193, [(2,4,6-Triisopropyl-phenyl)-acetyl]-sulfamic acid 2,6-dichloro-phenyl ester], for the setting “ECV-304, 6 h”, the inhibition at 10 µM was found to be 38.3%.

Regarding `COc1cccc(OC)c1OS(=O)(=O)NC(=O)Cc1c(C(C)C)cc(C(C)C)cc1C(C)C` [Example 186, [(2,4,6-Triisopropyl-phenyl)-acetyl]-sulfamic acid 2,6-dimethoxy-phenyl ester], the inhibition at 10 µM (ECV-304, 6 h) was found to be 18.8%.

As for `CC(C)c1cccc(C(C)C)c1CC(=O)NS(=O)(=O)Oc1c(C(C)C)cccc1C(C)C` [Example 122, Sulfamic acid, [[2,6-bis(1-methylethyl)phenyl]acetyl]-, 2,6-bis(1-methylethyl)-phenyl ester], the inhibition at 10 µM (ECV-304, 6 h) was found to be 65.3%.

`CC(C)c1cc(C(C)C)c(CC(=O)NS(=O)(=O)Oc2c(C(C)C)cc(NC(=O)[C@@H](N)CCC(N)=O)cc2C(C)C)c(C(C)C)c1` [Example 231, [2-(2,4,6-Triisopropyl-phenyl)-acetyl]-sulfamic acid 4-((S)-2-amino-4-carbamoyl-butyrylamino)-2,6-diisopropyl-phenyl ester; compound with trifluoro-acetic acid]: the inhibition at 10 µM (ECV-304, 6 h) was 78.1%.

For the compound `CC(C)c1cccc(C(C)C)c1OC(=O)NS(=O)(=O)Oc1c(C(C)C)cc(O)cc1C(C)C` [Example 135, Carbamic acid, [[4-hydroxy-2,6-bis(1-methylethyl)phenoxy]sulfonyl]-, 2,6-bis(1-methylethyl)phenyl ester], the inhibition at 10 µM was less than 10%.

With `CC(C)c1cccc(C(C)C)c1OS(=O)(=O)NC(=O)Oc1ccc(F)cc1` [Example 150, Carbamic acid, [[2,6-bis(1-methylethyl)phenoxy]sulfonyl]-, 4-fluorophenyl ester], the inhibition at 10 µM was less than 10%.

Take `CC(C)c1cccc(C(C)C)c1OS(=O)(=O)NC(=O)C(c1ccc(Cl)cc1)c1ccc(Cl)cc1` [Example 172, [Bis-(4-chloro-phenyl)-acetyl]-sulfamic acid 2,6-diisopropyl-phenyl ester]: the inhibition at 10 µM (ECV-304, 6 h) is 86.9%.

Turning to `CC(C)c1cc(-c2cc(C(C)C)c(OC(=O)NS(=O)(=O)Oc3c(C(C)C)cccc3C(C)C)c(C(C)C)c2)cc(C(C)C)c1OC(=O)NS(=O)(=O)Oc1c(C(C)C)cccc1C(C)C` [Example 134, Carbamic acid, [[2,6-bis(1-methylethyl)phenoxy]sulfonyl]-, 3,3′,5,5′-tetrakis(1-methylethyl) [1,1′-biphenyl]-4,4′-diyl ester], the “Percent Inhibition at 10 μM” value came to 18.39%.

With `CC(C)c1cc(C(C)(C)O)cc(C(C)C)c1CC(=O)NS(=O)(=O)Oc1c(C(C)C)cccc1C(C)C` [Example 202, {[4-(1-Hydroxy-1-methyl-ethyl)-2,6-diisopropyl-phenyl]-acetyl}-sulfamic acid 2,6-diisopropyl-phenyl ester], the inhibition at 10 µM (ECV-304, 6 h) is 25.4%.

Consider `CCCCCCCCCCCCOC(=O)NS(=O)(=O)Nc1c(OC)cc(OC)cc1OC` [Example 79, Carbamic acid, [[(2,4,6-trimethoxyphenyl)amino]sulfonyl]-, dodecyl ester], for which the inhibition at 10 µM (ECV-304, 6 h) is less than 10%.

Regarding `CC(C)c1cc([N+](=O)[O-])cc(C(C)C)c1OC(=O)NS(=O)(=O)Oc1c(C(C)C)cccc1C(C)C` [Example 110, Carbamic acid, [[2,6-bis(1-methylethyl)phenoxy]sulfonyl]-, 2,6-bis(1-methylethyl)-4-nitrophenyl ester], the inhibition at 10 µM worked out at 15.5%.

Regarding `CC(C)c1cccc(C(C)C)c1OS(=O)(=O)NC(=O)c1cc2ccccc2oc1=O` [Example 237, (2-Oxo-2H-chromene-3-carbonyl)-sulfamic acid 2,6-diisopropyl-phenyl ester], under “ECV-304, 6 h”, the inhibition at 10 µM is 57.1%.

`CC(C)c1cc(C(C)C)c(CC(=O)NS(=O)(=O)Oc2c(C(C)C)cc(NC(=O)C(C)(C)N)cc2C(C)C)c(C(C)C)c1` [Example 207, [(2,4,6-Triisopropyl-phenyl)-acetyl]-sulfamic acid 4-(2-amino-2-methyl-propionylamino)-2,6-diisopropyl-phenyl ester]: for the setting “ECV-304, 6 h”, the inhibition at 10 µM was found to be 60.3%.

`CC(C)c1cccc(C(C)C)c1OC(=O)NS(=O)(=O)N(c1ccccc1)c1ccccc1` [Example 26, Carbamic acid, [(diphenylamino)sulfonyl]-, 2,6-bis(1-methylethyl)phenyl ester]: the inhibition at 10 µM was 32.8%.

Turning to `CC(C)C[C@H](N)C(=O)Nc1cc(C(C)C)c(OS(=O)(=O)NC(=O)Cc2c(C(C)C)cc(C(C)C)cc2C(C)C)c(C(C)C)c1` [Example 216, [2-(2,4,6-Triisopropyl-phenyl)-acetyl]-sulfamic acid 4-((S)-2-amino-4-methyl-pentanoylamino)-2,6-diisopropyl-phenyl ester; compound with trifluoro-acetic acid], under “ECV-304, 6 h”, the inhibition at 10 µM stood at 65.4%.

Take `CC(C)(C)c1cccc(C(C)(C)C)c1OC(=O)NS(=O)(=O)N(Cc1ccccc1)Cc1ccccc1` [Example 24, Carbamic acid, [[bis(phenylmethyl)amino]sulfonyl]-, 2,6-bis(1,1-dimethylethyl)-phenyl ester]: the inhibition at 10 µM turned out to be 31%.
